Values of other authors, collected in patent US11198893B2, “Method for producing omega 3 and omega 6 unsaturated fatty acid oxides” (Bizen Chemical Co., Ltd., priority 2016, dated 2021).

Experiments:
[1] = test system: obese mice
[2] = test system: liver glucose synthesis

SMILES	glucose tolerance and insulin resistance [1]	inflammatory cytokine expression [1]	glycometabolism [2]	liver glucose synthesis [2]
CC/C=C\C[C@H](O)/C=C/C=C\C/C=C\C/C=C\C/C=C\CCC(=O)O [17S-HDHA]	improve glucose tolerance and insulin resistance	suppresses inflammatory cytokine expression	–	–
CC/C=C\C[C@H](O)/C=C/C=C\C=C\[C@@H](O)C/C=C\C/C=C\CCC(=O)O [protectin DX]	–	–	action to promote glycometabolism	action to suppress liver glucose synthesis
